Experimental data reported in patent US10653676B2 (Dana-Farber Cancer Institute, Inc., priority 2010, dated 2020).
Where two headings read alike, the source gives them in different places.

Legend:
[1] = target: T1, USP1/UAF1 complex (Homo sapiens, UniProt O94782, G670A/G671A); test: ubiquitin-AMC in vitro deubiquitination enzyme assay; type: biochemical
T1 construct: This modified full length USP1 clone was PCR amplified and subcloned into pFastBac-HT vectors; His tag (N); made in house; host or cells: Sf9 insect cells (baculovirus)
Procedure: Purified USP1/UAF1 complex was incubated with 1 μM C527 or DMSO for indicated time, followed by the addition of Ub-AMC at 0.5 μM final concentration. The fluorescence at […] was measured to indicate the enzymatic activity of USP1. […] 5A.
The in vitro enzymatic assays were performed using purified proteins from Sf9 cells as described previously (Cohn et al.). The assays using ubiquitin-AMC (Ub-7-amido-4-methylcoumarin; Boston Biochem) as substrate was carried out in a reaction buffer containing 20 mM HEPES-KOH (pH 7.8), 20 mM NaCl, 0.1 mg/ml ovalbumin, 0.5 mM EDTA and 10 mM dithiothreitol. The fluorescence was measured by FluoStar Galaxy Fluorometer (BMG Labtech). For the Ub-vinylsulfone (VS) assay, the proteins were incubated with Ub-VS at 0.5 μM final concentration for 1 h at 30° C., followed by the immunoblotting analysis.
In order to develop a highly sensitive assay with easy readout for high throughput detection, the fluorogenic compound Ubiquitin-7-amido-4-methylcoumarin (AMC-Ub, Boston Biochem) was used as a substrate for USP1/UAF1 enzyme complex. USP1 catalyzes the cleavage of AMC-Ub, releasing free AMC moiety, which leads to increase in fluorescence emission at 460 nm (λex=380 nm). Dang et al. (1998) Biochemistry 37:1868-79. […] Initial enzyme assay development was performed in 96-well plates with 100 μl reaction volume containing 20 mM HEPES-KOH, 0.1 mg/ml ovalbumin (Sigma), 0.5 mM EDTA, and 10 mM DTT. 2.5 nM USP1/UAF1 enzyme complex was mixed with the reaction buffer, incubated at 37° C. for 10 minutes and then 0.3 μM AMC-Ub was added. Fluorescence was measured using a Fluostar Galaxy Fluorometer (BMG Labtech Inc.).
Hits from the initial screening were analyzed further in secondary screening. In this step, the compounds were re-tested for inhibition using the AMC-Ub in vitro enzyme assay. After reconfirming inhibition, different concentration range of the inhibitors were tested to show dose dependency of inhibition and IC50 calculation.

[2] = target: T2, native USP1 (Homo sapiens, UniProt O94782); test: HA-Ub-VS labelling of native USP1 in HeLa cell extracts; type: biochemical; details: HeLa cell extracts pretreated 4 h, then Ub-VS 40 min at 30° C.; FIG. 7
T2 construct: endogenous in cells; host or cells: HeLa cell extract
Procedure: FIG. 7 is a composite figure depicting preferential inhibition of the activity of native USP1/UAF1 by C527. HeLa cell extracts were incubated with ubiquitin-aldehyde (Ub-Ald, 5 μM) or C527 at indicated concentrations for 4 h, followed by the addition of 0.5 μM Ub-Vs for 40 min. The reaction was split into two aliquots and subjected to immunoblotting for HA or USP1, respectively.
The ability of C527 to inhibit the deubiquitinating activity of native USP1 complexes derived from human cells was determined next (FIG. 7). For this purpose, the HA-tagged ubiquitin-VS, an affinity reagent known to covalently modify and trap active DUB enzymes in cell extracts was used. Cell extracts prepared from HeLa cells were pretreated with increasing concentrations of C527 for 4 h, followed by the incubation with Ub-VS for 40 min at 30° C. The enzymatic activity of endogenous DUBs was indicated by the conjugation of Ub-VS, detected as HA-labeling (see FIG. 7, high molecular weight bands). […] Ub-VS conjugation was inhibited by ubiquitin-aldehyde (Ub-Ald), a non-specific inhibitor of DUBs (lane 3).

T1 sequence (O94782 whole entry G670A/G671A): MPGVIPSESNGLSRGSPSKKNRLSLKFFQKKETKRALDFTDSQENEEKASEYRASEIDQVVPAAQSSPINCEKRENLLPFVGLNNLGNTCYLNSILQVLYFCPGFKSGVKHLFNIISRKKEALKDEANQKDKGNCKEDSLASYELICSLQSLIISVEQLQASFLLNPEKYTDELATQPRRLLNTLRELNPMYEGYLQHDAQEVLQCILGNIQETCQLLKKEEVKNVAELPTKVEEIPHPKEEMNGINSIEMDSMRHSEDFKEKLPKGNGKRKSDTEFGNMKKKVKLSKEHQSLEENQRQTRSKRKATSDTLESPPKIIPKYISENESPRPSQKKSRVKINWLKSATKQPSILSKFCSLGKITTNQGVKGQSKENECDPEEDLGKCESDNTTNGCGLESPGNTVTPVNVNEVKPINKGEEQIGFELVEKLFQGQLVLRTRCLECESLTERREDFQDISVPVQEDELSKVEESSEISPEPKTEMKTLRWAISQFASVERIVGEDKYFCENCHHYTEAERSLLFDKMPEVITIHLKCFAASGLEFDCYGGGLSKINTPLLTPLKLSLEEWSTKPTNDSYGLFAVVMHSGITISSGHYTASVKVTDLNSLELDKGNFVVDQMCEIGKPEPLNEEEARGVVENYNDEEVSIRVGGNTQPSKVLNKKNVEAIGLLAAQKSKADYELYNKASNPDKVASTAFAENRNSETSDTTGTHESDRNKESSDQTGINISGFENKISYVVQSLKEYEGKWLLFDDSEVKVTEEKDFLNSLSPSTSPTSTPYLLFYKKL
T1 sequence (Q8TAF3 whole entry partner): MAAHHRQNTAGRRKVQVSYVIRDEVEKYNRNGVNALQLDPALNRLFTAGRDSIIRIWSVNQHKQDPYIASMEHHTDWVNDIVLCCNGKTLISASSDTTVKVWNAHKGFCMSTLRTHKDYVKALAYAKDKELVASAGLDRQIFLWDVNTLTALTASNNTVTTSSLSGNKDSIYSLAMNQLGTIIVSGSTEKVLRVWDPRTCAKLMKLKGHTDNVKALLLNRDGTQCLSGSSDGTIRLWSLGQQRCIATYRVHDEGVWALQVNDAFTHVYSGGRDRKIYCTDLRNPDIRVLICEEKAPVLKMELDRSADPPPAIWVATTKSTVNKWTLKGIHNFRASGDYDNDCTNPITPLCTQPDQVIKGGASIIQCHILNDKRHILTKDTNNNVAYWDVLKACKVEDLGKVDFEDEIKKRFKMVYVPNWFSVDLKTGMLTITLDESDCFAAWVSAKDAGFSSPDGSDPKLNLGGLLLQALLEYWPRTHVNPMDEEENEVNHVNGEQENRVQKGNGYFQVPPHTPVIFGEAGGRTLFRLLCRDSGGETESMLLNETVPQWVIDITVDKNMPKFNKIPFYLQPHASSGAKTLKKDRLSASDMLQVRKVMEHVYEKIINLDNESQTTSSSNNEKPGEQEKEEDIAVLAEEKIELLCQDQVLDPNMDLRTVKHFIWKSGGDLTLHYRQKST
T2 sequence (O94782 whole entry): as the sequence (O94782 whole entry G670A/G671A) above, with A670G, A671G counted along it
T2 sequence (Q8TAF3 whole entry partner): as the sequence (Q8TAF3 whole entry partner) above

O=C1c2ccccc2C(=O)c2oc(-c3ccc(F)cc3)nc21 [Formula IV (527)]
IC50 ([1]; 4 hour preincubation, AMC-Ub in vitro enzyme assay, read-out: IC50): 134 nM
inhibition of DUB activity (fluorescence) with pretreatment time ([1]; single dose 1 uM, variable time periods, FIG. 5A): serial increase in inhibition of DUB activity
DUB activity with increasing dose ([1]; treatment for 2 h, 0.5 to 2 μM, FIG. 5B): dose-dependent decrease in DUB activity
IC50 ([1]; ubiquitin-AMC substrate, FIG. 5C, read-out: IC50 of C527 for the USP1/UAF1 complex): 880 ± 30 nM
USP1 binding to Ub-VS [2]: did inhibit USP1 binding to Ub-VS in the same reaction in a dose-dependent manner
